Values after ≈ are worked out from the molar mass of the structure shown. Read-outs that look alike come from different tables or passages of the source.
How the values were obtained:
[1] = test system: human embryonic stem cells (hES); test: Cytotoxicity in undifferentiated human embryonic stem cells, day 15 (FACS with PI / CyQUANT); format: cell-based; details: for IC50: Homo sapiens, Embryonic stem cell
Method: In general, the presently disclosed embryotoxicity testing protocols comprise the following sequence of steps. Studies using embryoid bodies generally comprise: a) preparation of various concentrations of test solutions in culture medium or a desired solvent; b) preparation of a cell suspension by enzymatic digestion of human embryonic stem cell colonies; c) culturing the cell suspension for formation of embryoid bodies in the presence and absence of one or more test solutions, and incubation for several days (e.g., three days) in hanging drops; d) cultivation of the embryoid bodies in bacteriological petri dishes for several days (e.g., two days) under controlled conditions; e) transfer of the embryoid bodies into 96 well plates and incubation for several days (e.g., 10 days) in the presence of one or more test solutions; and f) detection of the viability of the embryoid bodies after 15 days by MTT assay, or fluorescent or luminescent method, and isolation of RNA for studying gene expression. Studies using human foreskin fibroblasts (HFF) generally comprise: a) preparation of various concentrations of test solutions in culture medium or a desired solvent; b) plating of HFF cells in 96 well plates in the presence or absence of one or more test solutions for 15 days, changing the media and test solutions every 2 days; and c) detection of the viability of HFF after 15 days by MTT assay, or fluorescent or luminescent method. Studies using human embryonic stem cells generally comprise: a) preparation of various concentrations of test solutions in culture medium or a desired solvent; b) preparation of hES colonies by manual passage in the presence and absence of one or more test solutions, and incubation for 15 days on matrigel coated plates changing the media and test solutions every 2 days; c) disruption of the colonies after 15 days with enzymes to form single cells; d) labeling of single cells with a fluorescently-labeled dye, such as propidium iodide (“PI”); and e) detection of the percentage viability with FACS as a measure of cytotoxicity. […]
After 2 hours incubation, 150 μl of assay medium containing the appropriate concentration of test chemical (150 μl volume contains 1.333× the final chemical concentration) was added. Appropriate blanks without the chemicals were used along with the test samples The cell cultures were incubated at 5% CO2 and 37° C. for 3 days. On day 3, test solution was removed with the care, so that the cell layer on the bottom of the wells was not disturbed. Next, 200 μl of freshly prepared test solution (final concentration/well as on day 0) was added, and the cell cultures were incubated at 5% CO2 and 37° C. for 3 days. This process was repeated on days 6, 9, and 12. Determination of cell growth inhibition was performed at day 15 of the assay using MTT reagent. Cytotoxicity for hES cells was calculated using flow cytometry. Briefly, cells were placed on matrigel coated plates along with different test compound concentrations. Media was replaced every 3 days along with the different test compound concentrations. At day 15, hES cells were collected by trypsinization, and after washing with PBS, the cells were incubated with PI for 10 minutes in the dark. Percent viability for various test compound concentrations was calculated using flow cytometry.
(§1) Cytotoxicity analysis of three cell types (hES, hEBs and HFF) was evaluated using the CyQUANT assay following compound treatment. All data were the mean of three independent experiments for each cell type. Data is represented as the mean±SE.

[2] = test system: human foreskin fibroblasts (HFF); test: Cytotoxicity in human foreskin fibroblasts, day 15 (MTT / CyQUANT); format: cell-based; details: for IC50: Homo sapiens, Fibroblast
Method: In general, the presently disclosed embryotoxicity testing protocols comprise the following sequence of steps. Studies using embryoid bodies generally comprise: a) preparation of various concentrations of test solutions in culture medium or a desired solvent; b) preparation of a cell suspension by enzymatic digestion of human embryonic stem cell colonies; c) culturing the cell suspension for formation of embryoid bodies in the presence and absence of one or more test solutions, and incubation for several days (e.g., three days) in hanging drops; d) cultivation of the embryoid bodies in bacteriological petri dishes for several days (e.g., two days) under controlled conditions; e) transfer of the embryoid bodies into 96 well plates and incubation for several days (e.g., 10 days) in the presence of one or more test solutions; and f) detection of the viability of the embryoid bodies after 15 days by MTT assay, or fluorescent or luminescent method, and isolation of RNA for studying gene expression. Studies using human foreskin fibroblasts (HFF) generally comprise: a) preparation of various concentrations of test solutions in culture medium or a desired solvent; b) plating of HFF cells in 96 well plates in the presence or absence of one or more test solutions for 15 days, changing the media and test solutions every 2 days; and c) detection of the viability of HFF after 15 days by MTT assay, or fluorescent or luminescent method. Studies using human embryonic stem cells generally comprise: a) preparation of various concentrations of test solutions in culture medium or a desired solvent; b) preparation of hES colonies by manual passage in the presence and absence of one or more test solutions, and incubation for 15 days on matrigel coated plates changing the media and test solutions every 2 days; c) disruption of the colonies after 15 days with enzymes to form single cells; d) labeling of single cells with a fluorescently-labeled dye, such as propidium iodide (“PI”); and e) detection of the percentage viability with FACS as a measure of cytotoxicity.
HFF were trypsinized, and a cell suspension of 1×10^4 cells/ml in routine culture medium was prepared. Using a multi-channel pipette, 50 μl volumes of the cell suspension (500 cells/well) was dispensed. Viability of the cells can be checked by staining an aliquot of the cell suspension with trypan blue. A viability of 90% is acceptable. The cells were incubated for 2 hours in a humidified atmosphere with 5% CO2 at 37° C., which allows for adherence of the cells. After 15 days of culture with medium changes (containing appropriate test compound concentrations) every 3 days, the viability of the cells was determined using the MTT test, which was detected quantitatively using a microplate ELISA reader at 570 nm with a 630 nm reference filter.
as §1
The endpoints of detection chosen in the study was inhibition of cell proliferation in human ES cells (IC50 hES), differentiating EBs (IC50 hEB), and in HFF (IC50 HFF), as evidenced in a cell viability assay using CyQuant assay.

[3] = test system: 3T3 (mouse fibroblast cell line); details: Table 4; from the EST (Genschow, et al., 2000); cited from earlier work
mouse ES cells = details: Table 4; from the EST (Genschow, et al., 2000); cited from earlier work
[4] = 360 h, Table 3, mean of 3 experiments, day 15, read-out: IC50-hES
[5] = 360 h, Table 3, mean of 3 experiments, day 15, read-out: IC50-HFF
[6] = Table 4, CyQuant cell viability assay, read-out: Human EST IC50 - hES
[7] = Table 4, CyQuant cell viability assay, read-out: Human EST IC50 - HFF
[8] = Table 3, mean of 3 experiments, day 15
[9] = Table 4, CyQuant cell viability assay

Compound	IC50 [1, 4]	survival percentage ([1]; hES, 1 μg/ml, day 15, FIG. 3A)	effect on cell viability ([1]; hES, up to 0.01 μg/ml, FIG. 3A)	survival percentage ([2]; HFF, 1 μg/ml, day 15, FIG. 3A)	effect on cell viability ([2]; HFF, up to 0.01 μg/ml, FIG. 3A)	IC50 [2, 5]	Mouse EST IC50 - 3T3 [3]	Mouse EST IC50 - mES (mouse ES cells)	IC50 [1, 6]	IC50 [2, 7]	survival ([1]; hES, 500 μg/ml, FIG. 3B)	survival ([2]; HFF, 500 μg/ml, FIG. 3B)	IC50-hES [1, 8]	Human EST IC50 - hES [1, 9]	cell survival ([1]; hES, 5000 μg/ml (highest dose), FIG. 3C)	cell survival ([2]; HFF, 5000 μg/ml (highest dose), FIG. 3C)	IC50-HFF [2, 8]	Human EST IC50 - HFF [2, 9]
O=c1[nH]cc(F)c(=O)[nH]1 [5-Fluorouracil, 5-fluorouracil]	0.546 µg/mL (≈ 4.2 µM)	30%	no major effect	7%	no major effect	0.11 µg/mL (≈ 0.848 µM)	–	–	–	–	–	–	–	–	–	–	–	–
CS(=O)(=O)OCCCCOS(C)(=O)=O [Busulfan, busulfan]	2.1 ± 0.6 µg/mL (≈ 8.53 µM)	–	–	–	–	2.7 ± 0.2 µg/mL (≈ 11 µM)	4.8 µg/mL	2.1 µg/mL	2.1 ± 0.6 µg/mL (≈ 8.53 µM)	2.7 ± 0.2 µg/mL (≈ 11 µM)	–	–	–	–	–	–	–	–
Cn1c(=O)c2c(ncn2C)n(C)c1=O [Caffeine, caffeine]	110 ± 12.5 µg/mL (≈ 566 µM)	–	–	–	–	79.3 ± 3.4 µg/mL (≈ 408 µM)	–	–	110 ± 12.5 µg/mL (≈ 566 µM)	79.3 ± 3.4 µg/mL (≈ 408 µM)	about 10%	about 10%	–	–	–	–	–	–
NC(=O)NO [Hydroxyurea, hydroxyurea]	2.6 ± 0.2 µg/mL (≈ 34.2 µM)	–	–	–	–	8.9 ± 0.9 µg/mL (≈ 117 µM)	7.2 µg/mL	2.0 µg/mL	2.6 ± 0.2 µg/mL (≈ 34.2 µM)	8.9 ± 0.9 µg/mL (≈ 117 µM)	–	–	–	–	–	–	–	–
COc1ccc2c(c1)c(CC(=O)O)c(C)n2C(=O)c1ccc(Cl)cc1 [Indomethacin, indomethacin]	73.4 ± 3.4 µg/mL (≈ 205 µM)	–	–	–	–	33.5 ± 1.3 µg/mL (≈ 93.6 µM)	27 µg/mL	29 µg/mL	73.4 ± 3.4 µg/mL (≈ 205 µM)	33.5 ± 1.3 µg/mL (≈ 93.6 µM)	–	–	–	–	–	–	–	–
CC1(C)S[C@@H]2[C@H](NC(=O)Cc3ccccc3)C(=O)N2[C@H]1C(=O)O [Penicillin G, penicillin G]	–	–	–	–	–	–	1586 µg/mL	2950 µg/mL	–	–	–	–	2013 ± 23.5 µg/mL (≈ 6020 µM)	2013 ± 23.5 µg/mL	1-2%	1-2%	1661 ± 23.5 µg/mL (≈ 4970 µM)	1661 ± 23.5 µg/mL
